# Measured values: ChEMBL document CHEMBL4033787, “Glutathione S-Transferase π-Activatable O2-(Sulfonylethyl Derived) Diazeniumdiolates Potently Suppress Melanoma in Vitro and in Vivo” (J Med Chem, 2018)
# Calls of active or inactive are those of the source. The rule behind the calls is not given here.
# What was measured:
# B16 [1] = assay: Antiproliferative activity against mouse B16 cells at 1 uM after 72 hrs by MTT assay; format: functional, cell-based
# 9L-2 = assay: Antiproliferative activity against rat 9L-2 cells at 1 uM after 72 hrs by MTT assay; format: functional, cell-based
# MCF7 [2] = assay: Antiproliferative activity against human MCF7 cells at 1 uM after 72 hrs by MTT assay; format: functional, cell-based
# HT-29 = assay: Antiproliferative activity against human HT-29 cells at 1 uM after 72 hrs by MTT assay; format: functional, cell-based
# B16 [3] = assay: Antitumor activity against mouse B16 cells implanted in nude mouse assessed as inhibition of tumor growth at 15 mg/kg, iv administered every other day for 20 days relative to control; format: functional; conditions: 480 h, read-out: TGI
# B16 [4] = assay: Antiproliferative activity against mouse B16 cells at 3 uM after 24 hrs in presence of GST-Pi inhibitor etacrynic acid by MTT assay; format: functional, cell-based
# B16 [5] = assay: Antiproliferative activity against mouse B16 cells at 3 uM after 24 hrs in presence of NO scavenger carboxy-PTIO by MTT assay; format: functional, cell-based
# B16 [6] = assay: Antitumor activity against mouse B16 cells implanted in iv dosed nude mouse assessed as reduction in tumor weight administered every other day for 20 days; format: functional, organism-based
# B16 [7] = assay: Antiproliferative activity against mouse B16 cells after 72 hrs by MTT assay; format: functional, cell-based; conditions: B16, 72 h
# B16 [8] = assay: Antiproliferative activity against mouse B16 cells at 3 uM after 24 hrs in presence of NO scavenger hemoglobin by MTT assay; format: functional, cell-based
# B16 [9] = assay: Antitumor activity against mouse B16 cells implanted in nude mouse assessed as inhibition of tumor growth at 30 mg/kg, iv administered every other day for 20 days relative to control; format: functional; conditions: 480 h, read-out: TGI
# [10] = Substrate activity at GST-Pi in mouse B16 cells assessed as increase in NO release after 8 hrs by DAF-FM DA dye-based flow cytometric analysis; format: ADME, cell-based
# [11] = Antiproliferative activity against mouse JB6 Cl 30-7b cells after 72 hrs by MTT assay; format: cell-based
# [12] = Substrate activity at GST-Pi in mouse JB6 Cl 30-7b cells assessed as NO release at 20 uM after 8 hrs by Griess assay; format: ADME, cell-based
# [13] = Substrate activity at GST-Pi in mouse B16 cells assessed as increase in NO release at 20 uM by Griess assay; format: ADME, cell-based; conditions: TDE = time-dependent effect
# Mus musculus [14] = assay: Toxicity in mouse assessed as mortality at 7.5 to 30 mg/kg, iv dosed for every other day for 20 days; format: organism-based; conditions: in vivo, 480 h
# B16 [15] = assay: Induction of nitration of mitochondrial cytochrome C in mouse B16 cells assessed as increase in nitrated cytochrome C levels at 10 uM after 24 hrs in presence of NO scavenger hemoglobin by Western blot analysis; format: functional, cell-based
# B16 [16] = assay: Antitumor activity against mouse B16 cells implanted in nude mouse assessed as inhibition of tumor growth at 7.5 mg/kg, iv administered every other day for 20 days relative to control; format: functional; conditions: 480 h, read-out: TGI
# B16 [17] = assay: Induction of nitration of mitochondrial cytochrome C in mouse B16 cells assessed as increase in nitrated cytochrome C levels at 10 uM after 24 hrs by Western blot analysis; format: functional, cell-based
# Mus musculus [18] = assay: Toxicity in mouse assessed as weight loss at 7.5 to 30 mg/kg, iv dosed for every other day for 20 days; format: organism-based; conditions: in vivo, 480 h
# [19] = Selectivity index, ratio of IC50 for mouse JB6 Cl 30-7b cells to IC50 for mouse B16 cells; format: functional
# B16 [20] = assay: Induction of nitration of mitochondrial cytochrome C in mouse B16 cells implanted in iv dosed mouse assessed as increase in nitrated cytochrome C levels administered every other day for 20 days by Western blot analysis; format: functional, organism-based
# [21] = Drug metabolism assessed as GST-Pi (unknown origin)-mediated compound decomposition at 40 uM by UV spectrophotometric analysis; format: ADME; conditions: human, TDE = time-dependent effect
# [22] = Stability of compound in normal saline after 500 mins by UV spectrophotometric analysis; format: physicochemical; conditions: buffer
# [23] = Drug metabolism assessed as GSTalpha (unknown origin)-mediated compound decomposition at 40 uM by UV spectrophotometric analysis; format: ADME; conditions: human
# MCF7 [24] = assay: Antiproliferative activity against human MCF7 cells after 72 hrs by MTT assay; format: functional, cell-based; conditions: MCF7, 72 h
# B16 [25] = assay: Antitumor activity against mouse B16 cells implanted in iv dosed nude mouse assessed as reduction in tumor volume administered every other day for 20 days; format: functional, organism-based
# B16 [26] = assay: Antiproliferative activity against mouse B16 cells after 72 hrs in presence of equimolar concentration of (S)-2-amino-5-((R)-1-(carboxymethylamino)-1-oxo-3-(vinylsulfonyl)propan-2-ylamino)-5-oxopentanoic acid by MTT assay; format: functional, cell-based; conditions: B16, 72 h
# B16 [27] = assay: Antiproliferative activity against mouse B16 cells after 72 hrs in presence of equimolar concentration of 4-hydroxy-1-(oxido-NNO-azoxy)piperidine by MTT assay; format: functional, cell-based; conditions: B16, 72 h
smiles,measurement,setting,value
N[C@@H](CCC(=O)N[C@@H](CS(=O)(=O)CCO/N=[N+](\[O-])N1CCCC1CO)C(=O)NCC(=O)O)C(=O)O (stereo not given in full),Activity,B16 [1],Active
same,Activity,9L-2,inactive
same,Activity,MCF7 [2],Active
same,Activity,HT-29,Active
CN(C)/N=N/c1[nH]cnc1C(N)=O [DACARBAZINE],inhibition in vivo at 15 mg/kg,B16 [3],49.9%
N[C@@H](CCC(=O)N[C@@H](CS(=O)(=O)CCO/N=[N+](\[O-])N1CCC(O)CC1)C(=O)NCC(=O)O)C(=O)O,Activity,B16 [1],Active
same,Activity,B16 [4],inactive
same,Activity,B16 [5],inactive
same,inhibition in vivo at 15 mg/kg,B16 [3],76.2%
same,Activity,B16 [6],Dose-dependent effect
same,IC50,B16 [7],184 nM
same,Activity,B16 [8],inactive
same,inhibition in vivo at 30 mg/kg,B16 [9],84.8%
same,Drug metabolism,[10],Dose-dependent effect
same,IC50,[11],1400 nM
same,Activity,9L-2,inactive
same,Drug metabolism,[12],Metabolite_Notdetected
same,Drug metabolism,[13],Tde
same,Activity,Mus musculus [14],Non-Toxic
same,Activity,MCF7 [2],Active
same,Activity,B16 [15],Active
same,inhibition in vivo at 7.5 mg/kg,B16 [16],42.3%
same,Activity,B16 [17],Active
same,Activity,Mus musculus [18],Non-Toxic
same,Ratio IC50,[19],8
same,Activity,B16 [20],Dose-dependent effect
same,Drug metabolism,[21],Tde
same,Stability,[22],Stable
same,Activity,HT-29,Active
same,Drug metabolism,[23],Metabolite_Notdetected
same,IC50,MCF7 [24],306 nM
same,Activity,B16 [25],Dose-dependent effect
[O-]/[N+](=N\O)N1CCC(O)CC1,IC50,B16 [7],928 nM
same,IC50,B16 [26],553 nM
CCOC(=O)CNC(=O)[C@H](CS(=O)(=O)CCO/N=[N+](\[O-])N(CCCl)CCCl)NC(=O)CC[C@H](N)C(=O)OCC,Activity,B16 [1],Active
same,Activity,9L-2,inactive
same,Activity,MCF7 [2],Active
same,Activity,HT-29,Active
CCOC(=O)N1CCN(/[N+]([O-])=N/OCCS(=O)(=O)C[C@H](NC(=O)CC[C@H](N)C(=O)OC)C(=O)NCC(=O)OC)CC1,Activity,B16 [1],Active
same,IC50,B16 [7],195 nM
same,Activity,9L-2,inactive
same,Activity,MCF7 [2],Active
same,Activity,HT-29,Active
same,IC50,MCF7 [24],338 nM
COC(=O)CNC(=O)[C@H](CS(=O)(=O)CCO/N=[N+](\[O-])N(CCCl)CCCl)NC(=O)CC[C@H](N)C(=O)OC,Activity,B16 [1],Active
same,Activity,9L-2,inactive
same,Activity,MCF7 [2],Active
same,Activity,HT-29,Active
CCOC(=O)N1CCN(/[N+]([O-])=N/OCCS(=O)(=O)C[C@H](NC(=O)CC[C@H](N)C(=O)O)C(=O)NCC(=O)O)CC1,Activity,B16 [1],Active
same,Activity,9L-2,inactive
same,Activity,MCF7 [2],Active
same,Activity,HT-29,Active
N[C@@H](CCC(=O)N[C@@H](CS(=O)(=O)CCO/N=[N+](\[O-])N(CCCl)CCCl)C(=O)NCC(=O)O)C(=O)O,Activity,B16 [1],Active
same,IC50,B16 [7],404 nM
same,Activity,9L-2,inactive
same,Activity,MCF7 [2],Active
same,Activity,HT-29,Active
same,IC50,MCF7 [24],611 nM
N[C@@H](CCC(=O)N[C@@H](CS(=O)(=O)CCOP(=O)(N(CCCl)CCCl)N(CCCl)CCCl)C(=O)N[C@@H](C(=O)O)c1ccccc1)C(=O)O [CANFOSFAMIDE],IC50,B16 [7],710 nM
same,IC50,MCF7 [24],870 nM
N[C@@H](CCC(=O)N[C@@H](CS(=O)(=O)CCO/N=[N+](\[O-])N1CCCC1)C(=O)NCC(=O)O)C(=O)O,Activity,B16 [1],Active
same,Activity,9L-2,inactive
same,Activity,MCF7 [2],Active
same,Activity,HT-29,Active
C=CS(=O)(=O)C[C@H](NC(=O)CC[C@H](N)C(=O)O)C(=O)NCC(=O)O,IC50,B16 [7],1910 nM
same,IC50,B16 [27],553 nM
same,Activity,B16 [15],inactive
CCOC(=O)N1CCN(/[N+]([O-])=N/Oc2ccc([N+](=O)[O-])cc2[N+](=O)[O-])CC1,IC50,B16 [7],1340 nM
same,Drug metabolism,[12],Metabolite_Notdetected
same,IC50,MCF7 [24],993 nM
